Holding throughout (type): in vivo
Data set [1] has as its system Echinochloa crus-galli (L.) Beauv. var. crusgall (Ec). Put plainly: Test for herbicidal effect by upland field soil treatment (Test Example 2), Ec. An outline of the steps:
(§1)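 Echinochloa crus-galli and Setaria viridis were sown in upland field soil and covered, then the soil surface was sprayed with water-diluted wettable powder at 100 g active ingredient per 10 ares (100 liters per 10 ares). Plants were grown in a greenhouse and scored on a standard scale on day 21.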

Data set [2] has as its system rice (Or). Put plainly: Test for crop selectivity by paddy field soil treatment (Test Example 4), phytotoxicity to rice. As to conditions: transplanted two-leaf stage rice, 100 g/10 a active ingredient, 21st day. An outline of the steps: (§2)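 Puddled paddy soil sown with Eo seeds, two-leaf rice transplanted at 2 cm depth, flooded 3 cm. Next day, wettable powder diluted in water was dropped on the water surface at 100 g a.i. per 10 ares. Herbicidal effect and rice phytotoxicity scored visually 21 days after treatment, greenhouse.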

Data set [3] deals with Echinochloa oryzicola Vasing. (Eo). Put plainly: Test for herbicidal effect by paddy field soil treatment (Test Example 1). To be noted: application amount (active ingredient) 100 g/10 a, examined at the 21st day from the treatment, index per Table 40. An outline of the steps: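 Eo seeds sown in puddled paddy soil under 3 cm water; next day a water-diluted wettable powder was dropped onto the water surface at 100 g active ingredient per 10 ares. Herbicidal effect scored on a standard scale 21 days after treatment, greenhouse-grown.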

The test system of data set [4] is Echinochloa crus-galli (L.) Beauv. var. crusgalli (Ec). Put plainly: Test for herbicidal effect by upland foliage treatment (Test Example 3). As to conditions: 100 g/10 a active ingredient, examined at 14th day. The essentials: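 Potted upland-soil Ec seedlings grown 2 weeks in greenhouse, then foliage-sprayed with water-diluted wettable powder at 100 L per 10 ares, giving 100 g active ingredient per 10 ares. Herbicidal effect scored on a graded standard 14 days after treatment.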

For data set [5], the system named is Setaria viridis (L.) Beauv. (Se). Put plainly: Test for herbicidal effect by upland field soil treatment (Test Example 2), Se. An outline of the steps: as §1
Data set [6] relates to Echinochloa oryzicola Vasing. (Eo). Put plainly: Test for crop selectivity by paddy field soil treatment (Test Example 4), herbicidal effect on Eo. To be noted: 100 g/10 a active ingredient, 21st day. An outline of the steps:
as §2

Where [7] appears, read: application amount (active ingredient) 100 g/10 a, examined at the 21st day from the treatment, index per Table 40.
[8] abbreviates: 100 g/10 a active ingredient, examined at 21st day.

On to `COC(=O)c1ccccc1CS(=O)(=O)C1=NOC(C)(C)C1` [Compound 1-145], for which the “Herbicidal effect to Ec” value is reported as 5 (A herbicidal effect or phytotoxicity of 90% or more) in data set [1] (setting [7]) and 4 (A herbicidal effect or phytotoxicity of 70% to less than 90%) in data set [4]. The “Phytotoxicity to Or” value in data set [2] is reported as 0 (A herbicidal effect or phytotoxicity of 0% to less than 10%). Moreover, the “Herbicidal effect to Eo” value in data set [3] and in data set [6] was 5 (A herbicidal effect or phytotoxicity of 90% or more) throughout. In addition, in data set [5] (setting [7]), the “Herbicidal effect to Se” value is recorded as 5 (A herbicidal effect or phytotoxicity of 90% or more).
Turning to `CCC1(C)CC(S(=O)(=O)Cc2ccc(C)cc2)=NO1` (centres unmarked) [Compound 1-203], the “Herbicidal effect to Ec” value in data set [1] (setting [7]) is 5 (A herbicidal effect or phytotoxicity of 90% or more); in data set [4], 4 (A herbicidal effect or phytotoxicity of 70% to less than 90%). In addition, the “Phytotoxicity to Or” value in data set [2] was 1 (A herbicidal effect or phytotoxicity of 10% to less than 30%). Further, the “Herbicidal effect to Eo” value in data set [3] and in data set [6] was 5 (A herbicidal effect or phytotoxicity of 90% or more) throughout. Moreover, the “Herbicidal effect to Se” value in data set [5] (setting [7]) is given as 4 (A herbicidal effect or phytotoxicity of 70% to less than 90%).
As to `CCC1(C)CC(S(=O)(=O)Cc2cccc(OC)c2)=NO1` (centres unmarked) [Compound 1-229], the “Herbicidal effect to Ec” value in data set [1] (setting [7]) was 5 (A herbicidal effect or phytotoxicity of 90% or more); in data set [4], 4 (A herbicidal effect or phytotoxicity of 70% to less than 90%). Moreover, the “Phytotoxicity to Or” value in data set [2] is given as 1 (A herbicidal effect or phytotoxicity of 10% to less than 30%). The “Herbicidal effect to Eo” value in data set [3] and in data set [6] was 5 (A herbicidal effect or phytotoxicity of 90% or more) throughout. For the same molecule, the “Herbicidal effect to Se” value in data set [5] (setting [7]) is 5 (A herbicidal effect or phytotoxicity of 90% or more).
For the molecule `CC(C)C1(C)CC(S(=O)(=O)Cc2c(F)cccc2F)=NO1` (centres unmarked) [Compound 1-368], the “Herbicidal effect to Ec” value in data set [1] (setting [7]) is listed as 5 (A herbicidal effect or phytotoxicity of 90% or more). In addition, the “Phytotoxicity to Or” value in data set [2] is listed as 1 (A herbicidal effect or phytotoxicity of 10% to less than 30%). The “Herbicidal effect to Eo” value in data set [3] and in data set [6] was 5 (A herbicidal effect or phytotoxicity of 90% or more) each time. For the same molecule, the “Herbicidal effect to Se” value in data set [5] (setting [7]) is 4 (A herbicidal effect or phytotoxicity of 70% to less than 90%).
As to `O=S(=O)(Cc1c(F)cccc1F)C1=NOC2(CCCCC2)C1` [Compound 1-384], the “Herbicidal effect to Ec” value in data set [1] (setting [7]) is recorded as 5 (A herbicidal effect or phytotoxicity of 90% or more). The “Phytotoxicity to Or” value in data set [2] was 0 (A herbicidal effect or phytotoxicity of 0% to less than 10%). Besides, the “Herbicidal effect to Eo” value in data set [3] and in data set [6] was 5 (A herbicidal effect or phytotoxicity of 90% or more) throughout. Further, the “Herbicidal effect to Se” value in data set [5] (setting [7]) is given as 4 (A herbicidal effect or phytotoxicity of 70% to less than 90%).
As for `CC1(C)CC(S(=O)(=O)Cc2c(N)cccc2F)=NO1` [Compound 1-549], the “Herbicidal effect to Ec” value in data set [1] (setting [8]) is listed as 5 (A herbicidal effect or phytotoxicity of 90% or more). Also, in data set [2], the “Phytotoxicity to Or” value is reported as 1 (A herbicidal effect or phytotoxicity of 10% to less than 30%). For the same molecule, the “Herbicidal effect to Eo” value in data set [3] and in data set [6] was 5 (A herbicidal effect or phytotoxicity of 90% or more) throughout. The “Herbicidal effect to Se” value in data set [5] (setting [8]) is listed as 5 (A herbicidal effect or phytotoxicity of 90% or more).
For the molecule `COc1ccc(C(C)C)c(C)c1CS(=O)(=O)C1=NOC(C)(C)C1` [Compound 1-584], the “Phytotoxicity to Or” value in data set [2] is on record as 1 (A herbicidal effect or phytotoxicity of 10% to less than 30%). Also, the “Herbicidal effect to Eo” value in data set [3] and in data set [6] was 5 (A herbicidal effect or phytotoxicity of 90% or more) each time. Further, in data set [4], the “Herbicidal effect to Ec” value is recorded as 5 (A herbicidal effect or phytotoxicity of 90% or more).
With `CCCOC(=O)c1ccccc1CS(=O)(=O)C1=NOC(C)(C)C1` [Compound 1-594], in data set [1] (setting [8]), the “Herbicidal effect to Ec” value was 5 (A herbicidal effect or phytotoxicity of 90% or more). Moreover, the “Phytotoxicity to Or” value in data set [2] is on record as 1 (A herbicidal effect or phytotoxicity of 10% to less than 30%). Further, the “Herbicidal effect to Eo” value in data set [3] and in data set [6] was 5 (A herbicidal effect or phytotoxicity of 90% or more) throughout. For the same molecule, in data set [5] (setting [8]), the “Herbicidal effect to Se” value is listed as 4 (A herbicidal effect or phytotoxicity of 70% to less than 90%).
Regarding `CCCCOC(=O)c1ccccc1CS(=O)(=O)C1=NOC(C)(C)C1` [Compound 1-596], the “Herbicidal effect to Ec” value in data set [1] (setting [8]) is 5 (A herbicidal effect or phytotoxicity of 90% or more). In data set [2], the “Phytotoxicity to Or” value was 1 (A herbicidal effect or phytotoxicity of 10% to less than 30%). The “Herbicidal effect to Eo” value in data set [3] and in data set [6] was 5 (A herbicidal effect or phytotoxicity of 90% or more) each time. The “Herbicidal effect to Se” value in data set [5] (setting [8]) is listed as 5 (A herbicidal effect or phytotoxicity of 90% or more).
Turning to `CCC(C)OC(=O)c1ccccc1CS(=O)(=O)C1=NOC(C)(C)C1` (centres unmarked) [Compound 1-597], the “Herbicidal effect to Ec” value in data set [1] (setting [8]) is reported as 5 (A herbicidal effect or phytotoxicity of 90% or more). Moreover, in data set [2], the “Phytotoxicity to Or” value is listed as 1 (A herbicidal effect or phytotoxicity of 10% to less than 30%). In addition, the “Herbicidal effect to Eo” value in data set [3] and in data set [6] was 5 (A herbicidal effect or phytotoxicity of 90% or more) throughout. Also, the “Herbicidal effect to Se” value in data set [5] (setting [8]) is 4 (A herbicidal effect or phytotoxicity of 70% to less than 90%).
On to `CCCCOc1cccc(C)c1CS(=O)(=O)C1=NOC(C)(C)C1` [Compound 1-605], for which the “Herbicidal effect to Ec” value in data set [1] (setting [8]) is 5 (A herbicidal effect or phytotoxicity of 90% or more). In addition, the “Phytotoxicity to Or” value in data set [2] is reported as 1 (A herbicidal effect or phytotoxicity of 10% to less than 30%). Also, the “Herbicidal effect to Eo” value in data set [3] and in data set [6] was 5 (A herbicidal effect or phytotoxicity of 90% or more) in each case. In data set [5] (setting [8]), the “Herbicidal effect to Se” value is listed as 4 (A herbicidal effect or phytotoxicity of 70% to less than 90%).
On to `CC1(C)CC(S(=O)(=O)Cc2ccccc2OC2CCCCC2)=NO1` [Compound 1-610], for which the “Herbicidal effect to Ec” value in data set [1] (setting [8]) is given as 5 (A herbicidal effect or phytotoxicity of 90% or more). Besides, the “Phytotoxicity to Or” value in data set [2] is given as 1 (A herbicidal effect or phytotoxicity of 10% to less than 30%). Also, the “Herbicidal effect to Eo” value in data set [3] and in data set [6] was 5 (A herbicidal effect or phytotoxicity of 90% or more) in each case. The “Herbicidal effect to Se” value in data set [5] (setting [8]) is 5 (A herbicidal effect or phytotoxicity of 90% or more).
Consider `CCCCOCc1ccccc1CS(=O)(=O)C1=NOC(C)(C)C1` [Compound 1-615], for which the “Herbicidal effect to Ec” value in data set [1] (setting [8]) is given as 5 (A herbicidal effect or phytotoxicity of 90% or more). For the same molecule, the “Phytotoxicity to Or” value in data set [2] is listed as 1 (A herbicidal effect or phytotoxicity of 10% to less than 30%). Moreover, the “Herbicidal effect to Eo” value in data set [3] and in data set [6] was 5 (A herbicidal effect or phytotoxicity of 90% or more) each time. The “Herbicidal effect to Se” value in data set [5] (setting [8]) is 5 (A herbicidal effect or phytotoxicity of 90% or more).
With `CCCOC(=O)c1cccc(Cl)c1CS(=O)(=O)C1=NOC(C)(C)C1` [Compound 1-620], the “Herbicidal effect to Ec” value in data set [1] (setting [8]) was 5 (A herbicidal effect or phytotoxicity of 90% or more). Further, the “Phytotoxicity to Or” value in data set [2] is 1 (A herbicidal effect or phytotoxicity of 10% to less than 30%). In addition, the “Herbicidal effect to Eo” value in data set [3] and in data set [6] was 5 (A herbicidal effect or phytotoxicity of 90% or more) throughout. Further, in data set [5] (setting [8]), the “Herbicidal effect to Se” value is given as 5 (A herbicidal effect or phytotoxicity of 90% or more).
For the molecule `CS(=O)(=O)C1=NOC2(CCC2)C1` [Compound 2-29], the “Herbicidal effect to Ec” value in data set [1] (setting [8]) is on record as 5 (A herbicidal effect or phytotoxicity of 90% or more). Also, the “Phytotoxicity to Or” value in data set [2] was 1 (A herbicidal effect or phytotoxicity of 10% to less than 30%). Moreover, the “Herbicidal effect to Eo” value in data set [3] and in data set [6] was 5 (A herbicidal effect or phytotoxicity of 90% or more) each time. For the same molecule, in data set [5] (setting [8]), the “Herbicidal effect to Se” value is 5 (A herbicidal effect or phytotoxicity of 90% or more).

(Values after patent US6841519B1, “Isoxazoline derivatives and herbicides containing the same as the active ingredient” (Kumiai Chemical Industry Co., Ltd., priority 1999, dated 2005).)
